Experimental data: patent US11091515B2, “Polypeptide derived from CAP1 and pharmaceutical composition comprising same as effective ingredient” (Seoul National University Hospital, priority 2017, dated 2021)
Where no end group is shown, it is not given here.

Assays:
[1] = molecular target: T1, binding of resistin and CAP1 (Homo sapiens, UniProt Q9HD89); experiment: In vitro pull down assay of mFc-hResistin with CAP1 from THP-1 cell lysates (western blot with CAP1 antibody); conditions: for inhibition of binding of resistin and CAP1: each peptide at 50 μM, mFC-hResistin 1 μg/ml
T1 construct: host or cells: CAP1: endogenous, THP-1 cell lysate
T1 sequence (Q9HD89 19-108): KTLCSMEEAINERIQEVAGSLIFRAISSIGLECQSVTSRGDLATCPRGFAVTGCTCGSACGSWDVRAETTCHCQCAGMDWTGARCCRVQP
Procedure: THP-1 cells were lysed with lysis buffer (20 mM Tris pH 7.5, 150 mM NaCl, 1% Triton X-100, 0.25% sodium deoxycholate, 1 mM EDTA, 1 Mm NaF, 1 mM Na3VO4, and, protease inhibitor cocktail) to extract proteins. mFc-hResistin (0.5 ug) protein and VS_peptide (SEQ ID NO: 2) at 10 μM, 100 μM, and 500 μM were added to the extracted THP-1 protein (500 μg), followed by incubation at 4° C. overnight. mFC beads (20 μl) were added, and the protein complexes were pulled down at 4° C. for 3 hours, and then washed three times with lysis buffer. Then, SDS-PAGE sample buffer containing β-mercaptoethanol was added, followed by boiling at 100° C. for 5 minutes, and then a supernatant was obtained through centrifugation. It was investigated by western blotting using the hCAP1 antibody and mFc-HRP antibody whether the binding of hCAP1 and mFc-hResistin was inhibited by VS_peptide. Specifically, THP-1 cell lysates were treated with 1 μg/ml of mFC-hResistin, treated with VS_peptide (SEQ ID NO: 2) at 10 μM, 100 μM, and 500 μM each, and then pulled down using Fc beads. The proteins bound to beads were separated by SDS-PAGE, and subjected to western blotting using the CAP1 antibody. THP-1 cell lysates were treated with mFC-hResistin (1 μg/ml) and each of the peptides of SEQ ID NOS: 1 to 7 at 50 μM each, and pulled down using Fc beads. Thereafter, the proteins bound to Fc beads were separated by SDS-PAGE, and then subjected to western blotting using the CAP1 antibody.

[2] = tested on: NF-κB (p65 phosphorylation); experiment: NF-κB activity by p65 phosphorylation western blot in resistin-treated THP-1 cells; format: cell-based, human
Procedure: To investigate the effect of VS_peptide (SEQ ID NO: 2) on NF-κB activity, p65 phosphorylation was compared between the addition of VS_peptide (SEQ ID NO: 2) and the addition of AA_peptide (SEQ ID NO: 3). THP-1 cells were treated with resistin to activate NF-κB, and VS_peptide (SEQ ID NO: 2) and AA_peptide (SEQ ID NO: 3) were added, and then western blotting using the p-p65 antibody was performed for NF-κB activity.

[3] = Peptide pharmacokinetics by PET imaging of radioisotope-labeled peptide; format: in vivo, mice; conditions: tail vein injection, PET images at 0-48 hours
Procedure: VS_peptide and albumin-conjugated VS_peptide were injected at 36-40 μCi per mouse into the tail vein of C57BL/6 normal mice. After the injection, PET images were acquired at intervals of 0, 1, 2, 4, 24, and 48 hours using the GENISYS[…] machine from Sofie Bioscience. After the image acquisition, pharmacokinetic data were obtained by monoexponential fitting using the image analysis program Amide.
To increase drug delivery efficiency and drug effect duration of VS_peptide (SEQ ID NO: 2), albumin was bound to the peptide. VS_peptide (SEQ ID NO: 2) and albumin-conjugated VS_peptide (SEQ ID NO: 2) were labeled with a radioisotope, and then injected at 36-40 uCi each into the tail vein of male mice aged 8 weeks. PET images were acquired at intervals of 0, 1, 2, 4, 24, and 48 hours, and kinetics of the peptide in the body were observed.

MDA-MB-231 cells = experiment: Cell migration analysis of resistin-treated breast cancer cells; format: cell-based, human; conditions: MDA-MB-231, resistin 50 ng/ml, 30 μM and 50 μM, compared with AA_peptide
Procedure: MDA-MB-231 cells were suspended in DMEM medium (0.1% FBS), and then the suspension was added at a concentration of 1×10^5 cell/ml per well to uniformly spread throughout the upper chamber of 6-well Transwell. In the lower chamber, each of 50 μM VS_peptide (SEQ ID NO: 2) and AA_peptide (SEQ ID NO: 3) was mixed with DMEM medium (0.1% FBS), and resistin was added at 100 ng/ml. Thereafter, the cells were incubated in an incubator at 37° C. in 5% CO2 for 24 hours. The cells penetrating the Transwell were stained using Crystal violet staining, and then quantified using the Image J program.
MDA-MB-231 cells were suspended in DMEM medium, and then placed in 24-well plates at a concentration of 1×10^5 cell/ml per well. After 50 ng/ml of resistin was placed in each well, VS_peptide (SEQ ID NO: 2) and AA_peptide (SEQ ID NO: 3) were placed at 30 μM and 50 μM, respectively. Thereafter, the cells were incubated in an incubator at 37° C. and 5% CO2 for 6-15 hours. Thereafter, cell migration after 6 hours and 15 hours was observed using a microscope.

[4] = molecular target: T2, binding of resistin and CAP1 (rhCAP1, mFc-hResistin) (Homo sapiens, UniProt Q9HD89); experiment: Competitive ELISA, mFc-hResistin binding to plate-coated rhCAP1
T2 sequence (Q9HD89 19-108): T1 sequence (Q9HD89 19-108)
Procedure: Each well of a 96-well plate were coated with hCAP1 protein at a concentration of 2.5 μg/ml for 12 hours (overnight) at room temperature. Each well was washed two times with phosphate buffered saline (PBS, pH7.4). Each well was blocked with a blocking buffer containing 3% BAS at room temperature for 1 hour. The blocking buffer containing 3% BSA was mixed with 5 ug/ml mFc-hResistin protein and VS_peptide [SEQ ID NO: 2] at various concentrations (10 uM, 30 uM, 100 uM), followed by pre-incubation at room temperature for 1 hour. After the blocking solution was removed from the 96-well plate, 100 μl of the pre-incubated mixture of mFc-hResistin protein and VS_peptide (SEQ ID NO: 2) was dispensed in each well, followed by incubation at room temperature for 2 hours. Upon the completion of the incubation, each well was washed two times with PBS. After the anti-mouse-Fc-HRP antibody was diluted in a blocking buffer containing 3% BSA at 1:1000, 100 μl of the diluted antibody was dispensed in each well, followed by incubation at room temperature for 1 hour. Upon the completion of the incubation, each well was washed two times with PBS. […] After 100 μl of a stop solution was dispensed in each well, and the absorbance was measured at 450 nm using an ELISA reader. […] The resistin bound to the HRP-conjugated mFc antibody was measured by ELISA at an absorbance of 450 nm.

[5] = tested on: AMPK (phosphorylation of AMPK and ACC, LDLR expression); experiment: AMPK activity by western blot in HepG2 cells treated with AICAR and resistin; format: cell-based; conditions: peptide 50 μM, compared with addition of only resistin
Procedure: To investigate the effect of VS_peptide (SEQ ID NO: 2) on AMPK activity, AMPK phosphorylation was compared between the addition of VS_peptide (SEQ ID NO: 2) and the addition of AA_peptide (SEQ ID NO: 3). To investigate the effect of VS_peptide (SEQ ID NO: 2) on AMPK activity, HepG2 cells were treated with AICAR to activate AMPK and treated with resistin, and the cells were treated with VS_peptide (SEQ ID NO: 2) and AA_peptide (SEQ ID NO: 3) at 50 μM each. The western blotting was performed to investigate AMPK activity in HepG2 cells through the phosphorylation of AMPK, the phosphorylation of ACC, which is a substrate of AMPK, and the expression level of LDLR.

[6] = molecular target: T3, binding of resistin and CAP1 in THP-1 cells (Homo sapiens, UniProt Q9HD89); experiment: Immunoprecipitation of resistin/CAP1 from treated THP-1 cells; format: cell-based; conditions: THP-1 cells treated with resistin and peptide for 12 hours
T3 construct: endogenous in cells; host or cells: THP-1 cells (CAP1 endogenous)
T3 sequence (Q9HD89 19-108): T1 sequence (Q9HD89 19-108)
Procedure: THP-1 cells were treated with resistin or resistin and a peptide for 12 hours, and then lysed with lysis buffer (20 mM Tris pH 7.5, 150 mM NaCl, 1% Triton X-100, 0.25% sodium deoxycholate, 1 mM EDTA, 1mM NaF, 1mM Na3VO4, and protease inhibitor cocktail). The resistin antibody or CAP1 antibody was added to the cell lysates, followed by immunoprecipitation at 4° C. for 3 hours. Mouse IgG was added for control. Protein A/G agarose beads were added to the THP-1 protein and CAP1 antibody complex, followed by incubation, and then through centrifugation, only beads were left and the supernatant was removed. Thereafter, the proteins bound to beads were separated by SDS-PAGE, and after electrophoresis, the gel was transferred onto the polyvinylidene fluoride (PVDF, Millipore), and then blocked with 5% skim milk at room temperature for 30 minutes. […] After the incubation, the membrane was sufficiently washed at least three times for 10 minutes each, and bands were detected using ECL detection kit (Invitrogen, WP20005), and then analyzed. […]

| Sequence | inhibition of binding of resistin and CAP1 [1] | p65 phosphorylation induced by resistin [2] | expression level of LDLR [5] | phosphorylation of ACC [5] | phosphorylation of AMPK [5] | also measured |
| --- | --- | --- | --- | --- | --- | --- |
| AAAAGPPPPPVSTSSGSDES (Synthetic pro1A peptide) [Proline rich-1 region replaced with A] | inhibited the binding of resistin and CAP1 at similar levels to the VS_peptide | – | – | – | – | – |
| AAAAGAAAAAAATSSGSDES (Synthetic AAA peptide) [Proline rich regions and VS replaced with A] | allowed the strongest binding of resistin and CAP1 | – | – | – | – | – |
| PPPPGPPPPPVSTSSGSDES [VS_peptide] | effectively inhibited | inhibited | increased | increased | increased | time the administered medicine remains in the body [3]: ≤ 4 h; amount of cell migration (MDA-MB-231 cells): smaller; OD value (450 nm) of resistin bound to CAP1 ([4]; addition of peptide vs non-addition, 10, 30, 100 uM, dose-dependent): decreased; inhibition at 100 µM ([4]; peptide at 100 μM, read-out: inhibitory effect on binding of resistin and CAP1): ~25%; amount of CAP1 binding to resistin ([1]; peptide at 10, 100 and 500 μM, dose-dependent): reduced; binding of resistin and CAP1 in cells (bands in IP/western blot) [6]: no bands |
| PPPPGPPPPPAATSSGSDES (Synthetic AA peptide) [AA_peptide, VS replaced with AA; used as control peptide, reference compound] | failed to inhibit | not inhibited | similar | not increased | not increased | – |
| GPPPPPVSTS (Synthetic pep10 peptide) [Shortened peptide based on VS and proline rich-1] | inhibited the binding of resistin and CAP1 at similar levels to the VS_peptide | – | – | – | – | – |
| PPPPGAAAAAVSTSSGSDES (Synthetic pro2A peptide) [Proline rich-2 region replaced with A] | inhibited the binding of resistin and CAP1 at similar levels to the VS_peptide | – | – | – | – | – |
